*1 amine or outer side, *2 acyl side, *3 side chain or, on linkers, in order; H or OH if unused. Where a SMILES comes first, the peptide text is derived from it. Side-chain parts run from the residue outwards. [ ]: non-standard residue; d: D form. The star is where a group is joined. C20 diacid = O=C(O)CCCCCCCCCCCCCCCCCCC(=O)*; αMePhe(2-F) = C[C@](N)(Cc1ccccc1F)C(=O)O; γGlu = O=C(O)[C@H](CCC(=O)[*:2])N[*:1]; αMeF = C[C@](N)(Cc1ccccc1)C(=O)O; 4Pal = N[C@@H](Cc1ccncc1)C(=O)O; αMeL = CC(C)C[C@](C)(N)C(=O)O; AEEA = NCCOCCOCC(=O)O; Aib = CC(C)(N)C(=O)O
How the values were obtained:
human GLP-1R = target: T1, human GLP-1R (Homo sapiens, UniProt P43220); experiment: [125I]-GLP-1 binding, SPA with WGA beads, 0.1% bacitracin; conditions: geometric mean, read-out: hGLP1R Ki
T1 construct: expressed in transfected cells; crude membranes
T1 sequence (P43220 24-463): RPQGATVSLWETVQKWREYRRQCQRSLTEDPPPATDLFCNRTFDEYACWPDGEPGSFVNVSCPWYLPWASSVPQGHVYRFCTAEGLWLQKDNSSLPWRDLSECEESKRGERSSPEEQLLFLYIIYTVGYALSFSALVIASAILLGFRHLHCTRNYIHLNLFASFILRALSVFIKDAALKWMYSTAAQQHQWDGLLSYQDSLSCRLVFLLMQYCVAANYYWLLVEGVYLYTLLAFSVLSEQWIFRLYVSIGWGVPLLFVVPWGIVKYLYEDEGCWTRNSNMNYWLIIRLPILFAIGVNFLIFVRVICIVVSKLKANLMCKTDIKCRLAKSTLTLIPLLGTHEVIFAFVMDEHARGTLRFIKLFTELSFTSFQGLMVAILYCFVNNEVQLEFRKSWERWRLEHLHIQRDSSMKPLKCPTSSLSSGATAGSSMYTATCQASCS
Method in brief: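 Binding buffer was 25 mM HEPES pH 7.4 with 2.5 mM CaCl2, 1 mM MgCl2, 0.1% (w/v) bacitracin, 0.003% Tween-20 and EDTA-free protease inhibitors. Four-parameter regression gave IC50, converted to Ki (geometric mean, SEM, n independent days).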

human GcgR = target: T2, human GcgR (Homo sapiens, UniProt P47871); experiment: [125I]-Glucagon binding, SPA with WGA beads, 0.1% bacitracin; conditions: geometric mean, read-out: hGcgR Ki
T2 construct: expressed in transfected cells; crude membranes
T2 sequence (P47871 26-477): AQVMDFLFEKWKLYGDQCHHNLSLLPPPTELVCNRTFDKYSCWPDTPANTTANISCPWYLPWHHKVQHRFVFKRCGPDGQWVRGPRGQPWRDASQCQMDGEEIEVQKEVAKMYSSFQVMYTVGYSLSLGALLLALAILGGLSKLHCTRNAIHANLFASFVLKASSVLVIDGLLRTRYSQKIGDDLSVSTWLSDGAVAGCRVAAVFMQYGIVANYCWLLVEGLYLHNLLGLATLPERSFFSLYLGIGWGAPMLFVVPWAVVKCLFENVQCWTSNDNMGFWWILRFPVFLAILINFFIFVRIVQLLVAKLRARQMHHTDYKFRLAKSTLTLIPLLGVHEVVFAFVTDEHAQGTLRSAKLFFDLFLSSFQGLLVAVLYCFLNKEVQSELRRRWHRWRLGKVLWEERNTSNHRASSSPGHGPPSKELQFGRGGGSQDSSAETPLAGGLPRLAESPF
Method in brief: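 SPA competition binding with WGA beads on crude membranes from HEK293 cells stably expressing hGcgR. Buffer: 25 mM HEPES pH 7.4, 2.5 mM CaCl2, 1 mM MgCl2, 0.1% bacitracin, 0.003% Tween-20; 10-point 3-fold dilutions, NSB with 1 μM Gcg.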

`CC[C@H](C)[C@H](NC(=O)[C@H](CO)NC(=O)[C@H](Cc1ccc(O)cc1)NC(=O)[C@H](CC(=O)O)NC(=O)[C@H](CO)NC(=O)[C@@H](NC(=O)[C@](C)(Cc1ccccc1)NC(=O)[C@@H](NC(=O)CNC(=O)[C@H](CCC(=O)O)NC(=O)C(C)(C)NC(=O)[C@@H](N)Cc1ccc(O)cc1)[C@@H](C)O)[C@@H](C)CC)C(=O)N[C@@](C)(CC(C)C)C(=O)N[C@@H](CC(C)C)C(=O)N[C@@H](CC(=O)O)C(=O)N[C@@H](CCCCN)C(=O)N[C@@H](CCCCNC(=O)COCCOCCNC(=O)COCCOCCNC(=O)CC[C@H](NC(=O)CCCCCCCCCCCCCCCCCCC(=O)O)C(=O)O)C(=O)N[C@@H](Cc1c[nH]cn1)C(=O)N[C@@H](CCC(N)=O)C(=O)NC(C)(C)C(=O)N[C@@H](CCC(=O)O)C(=O)N[C@@H](Cc1ccccc1)C(=O)N[C@H](C(=O)N[C@@H](CCC(=O)O)C(=O)N[C@@H](Cc1ccncc1)C(=O)N[C@@H](CC(C)C)C(=O)N[C@@H](CC(C)C)C(=O)N[C@@H](C)C(=O)N[C@@H](CCC(N)=O)C(=O)NCC(=O)N1CCC[C@H]1C(=O)N[C@@H](CO)C(=O)N[C@@H](CO)C(=O)NCC(=O)N[C@@H](C)C(=O)N1CCC[C@H]1C(=O)N1CCC[C@H]1C(=O)N1CCC[C@H]1C(=O)N[C@@H](CO)C(N)=O)C(C)C` [Example 60] (H-Y[Aib]EGT[αMeF]ISDYSI[αMeL]LDKK([AEEA-AEEA-γGlu-C20 diacid])HQ[Aib]EFVE[4Pal]LLAQGPSSGAPPPS-NH2) gave a Ki (human GLP-1R) of 51.4 nM and a Ki (human GcgR) of 26.2 nM.
For `CC[C@H](C)[C@H](NC(=O)[C@H](CO)NC(=O)[C@H](Cc1ccc(O)cc1)NC(=O)[C@H](CC(=O)O)NC(=O)[C@H](CO)NC(=O)[C@@H](NC(=O)[C@](C)(Cc1ccccc1F)NC(=O)[C@@H](NC(=O)CNC(=O)[C@H](CCC(=O)O)NC(=O)C(C)(C)NC(=O)[C@@H](N)Cc1ccc(O)cc1)[C@@H](C)O)[C@@H](C)CC)C(=O)N[C@@H](C)C(=O)N[C@@H](CC(C)C)C(=O)N[C@@H](CC(=O)O)C(=O)N[C@@H](CCCCN)C(=O)N[C@@H](CCCCNC(=O)COCCOCCNC(=O)COCCOCCNC(=O)CC[C@H](NC(=O)CCCCCCCCCCCCCCCCCCC(=O)O)C(=O)O)C(=O)N[C@@H](Cc1c[nH]cn1)C(=O)N[C@@H](CCC(N)=O)C(=O)NC(C)(C)C(=O)N[C@@H](CC(=O)O)C(=O)N[C@@H](Cc1ccccc1)C(=O)N[C@H](C(=O)N[C@@H](CCC(=O)O)C(=O)N[C@@H](Cc1c[nH]c2ccccc12)C(=O)N[C@@H](CC(C)C)C(=O)N[C@@H](CC(C)C)C(=O)N[C@@H](CCC(=O)O)C(=O)N[C@H](C(=O)NCC(=O)N1CCC[C@H]1C(=O)N[C@@H](CO)C(=O)N[C@@H](CO)C(=O)NCC(=O)N[C@@H](C)C(=O)N1CCC[C@H]1C(=O)N1CCC[C@H]1C(=O)N1CCC[C@H]1C(=O)N[C@@H](CO)C(N)=O)[C@@H](C)O)C(C)C` [Example 40] (H-Y[Aib]EGT[αMePhe(2-F)]ISDYSIALDKK([AEEA-AEEA-γGlu-C20 diacid])HQ[Aib]DFVEWLLETGPSSGAPPPS-NH2), the Ki (human GLP-1R) was 302 nM and the Ki (human GcgR) was 50.9 nM.
Work on `CC[C@H](C)[C@H](NC(=O)[C@H](CC(C)C)NC(=O)[C@@H](NC(=O)CNC(=O)[C@H](CCC(=O)O)NC(=O)C(C)(C)NC(=O)[C@@H](N)Cc1ccc(O)cc1)[C@@H](C)O)C(=O)N[C@@H](CO)C(=O)N[C@@H](CC(=O)O)C(=O)N[C@@H](Cc1ccc(O)cc1)C(=O)N[C@@H](CO)C(=O)N[C@H](C(=O)N[C@@](C)(CC(C)C)C(=O)N[C@@H](CC(C)C)C(=O)N[C@@H](CC(=O)O)C(=O)N[C@@H](CCCCN)C(=O)N[C@@H](CCCCNC(=O)COCCOCCNC(=O)COCCOCCNC(=O)CC[C@H](NC(=O)CCCCCCCCCCCCCCCCCCC(=O)O)C(=O)O)C(=O)N[C@@H](Cc1c[nH]cn1)C(=O)N[C@@H](CCC(N)=O)C(=O)NC(C)(C)C(=O)N[C@@H](CCC(=O)O)C(=O)N[C@@H](Cc1ccccc1)C(=O)N[C@H](C(=O)N[C@@H](CCC(=O)O)C(=O)N[C@@H](Cc1ccc(O)cc1)C(=O)N[C@@H](CC(C)C)C(=O)N[C@@H](CC(C)C)C(=O)N[C@@H](CCC(=O)O)C(=O)N[C@H](C(=O)NCC(=O)N1CCC[C@H]1C(=O)N[C@@H](CO)C(=O)N[C@@H](CO)C(=O)NCC(=O)N[C@@H](C)C(=O)N1CCC[C@H]1C(=O)N1CCC[C@H]1C(=O)N1CCC[C@H]1C(=O)N[C@@H](CO)C(N)=O)[C@@H](C)O)C(C)C)[C@@H](C)CC` [Example 72] (H-Y[Aib]EGTLISDYSI[αMeL]LDKK([AEEA-AEEA-γGlu-C20 diacid])HQ[Aib]EFVEYLLETGPSSGAPPPS-NH2) yielded a Ki (human GLP-1R) of 437 nM and a Ki (human GcgR) of 837 nM.
Compound `CC[C@H](C)[C@H](NC(=O)[C@H](CO)NC(=O)[C@H](Cc1ccc(O)cc1)NC(=O)[C@H](CC(=O)O)NC(=O)[C@H](CO)NC(=O)[C@@H](NC(=O)[C@](C)(Cc1ccccc1)NC(=O)[C@@H](NC(=O)CNC(=O)[C@H](CCC(=O)O)NC(=O)C(C)(C)NC(=O)[C@@H](N)Cc1ccc(O)cc1)[C@@H](C)O)[C@@H](C)CC)C(=O)N[C@@H](C)C(=O)N[C@@H](CC(C)C)C(=O)N[C@@H](CC(=O)O)C(=O)N[C@@H](CCCCN)C(=O)N[C@@H](CCCCNC(=O)COCCOCCNC(=O)COCCOCCNC(=O)CC[C@H](NC(=O)CCCCCCCCCCCCCCCCCCC(=O)O)C(=O)O)C(=O)N[C@@H](Cc1c[nH]cn1)C(=O)N[C@@H](CCC(N)=O)C(=O)NC(C)(C)C(=O)N[C@@H](CC(=O)O)C(=O)N[C@@H](Cc1ccccc1)C(=O)N[C@H](C(=O)N[C@@H](CCC(=O)O)C(=O)N[C@@H](Cc1ccncc1)C(=O)N[C@@H](CC(C)C)C(=O)N[C@@H](CC(C)C)C(=O)N[C@@H](CCC(=O)O)C(=O)NCC(=O)NCC(=O)N1CCC[C@H]1C(=O)N[C@@H](CO)C(=O)N[C@@H](CO)C(=O)NCC(=O)N[C@@H](C)C(=O)N1CCC[C@H]1C(=O)N1CCC[C@H]1C(=O)N1CCC[C@H]1C(=O)N[C@@H](CO)C(N)=O)C(C)C` [Example 44] (H-Y[Aib]EGT[αMeF]ISDYSIALDKK([AEEA-AEEA-γGlu-C20 diacid])HQ[Aib]DFVE[4Pal]LLEGGPSSGAPPPS-NH2) has a Ki (human GLP-1R) of 209 nM and a Ki (human GcgR) of 50 nM.
`CC[C@H](C)[C@H](NC(=O)[C@H](Cc1ccccc1)NC(=O)[C@@H](NC(=O)CNC(=O)[C@H](CCC(=O)O)NC(=O)C(C)(C)NC(=O)[C@@H](N)Cc1ccc(O)cc1)[C@@H](C)O)C(=O)N[C@@H](CO)C(=O)N[C@@H](CC(=O)O)C(=O)N[C@@H](Cc1ccc(O)cc1)C(=O)N[C@@H](CO)C(=O)N[C@H](C(=O)N[C@@](C)(CC(C)C)C(=O)N[C@@H](CC(C)C)C(=O)N[C@@H](CC(=O)O)C(=O)N[C@@H](CCCCN)C(=O)N[C@@H](CCCCNC(=O)COCCOCCNC(=O)COCCOCCNC(=O)CC[C@H](NC(=O)CCCCCCCCCCCCCCCCCCC(=O)O)C(=O)O)C(=O)N[C@@H](Cc1c[nH]cn1)C(=O)N[C@@H](CCC(N)=O)C(=O)NC(C)(C)C(=O)N[C@@H](CC(=O)O)C(=O)N[C@@H](Cc1ccccc1)C(=O)N[C@H](C(=O)N[C@@H](CCC(=O)O)C(=O)N[C@@H](Cc1ccc(O)cc1)C(=O)N[C@@H](CC(C)C)C(=O)N[C@@H](CC(C)C)C(=O)N[C@@H](CCC(=O)O)C(=O)N[C@@H](C)C(=O)NCC(=O)N1CCC[C@H]1C(=O)N[C@@H](CO)C(=O)N[C@@H](CO)C(=O)NCC(=O)N[C@@H](C)C(=O)N1CCC[C@H]1C(=O)N1CCC[C@H]1C(=O)N1CCC[C@H]1C(=O)N[C@@H](CO)C(N)=O)C(C)C)[C@@H](C)CC` [Example 68] (H-Y[Aib]EGTFISDYSI[αMeL]LDKK([AEEA-AEEA-γGlu-C20 diacid])HQ[Aib]DFVEYLLEAGPSSGAPPPS-NH2) was tested, and the Ki (human GLP-1R) was 421 nM and the Ki (human GcgR) was 290 nM.

Source: US12723063B2, “GIPR-agonist compounds” (Eli Lilly and Company, priority 2019, dated 2026)
